Data: PubChem BioAssay AID248 (DTP/NCI, 2004)
Several values for one entry are separate records, joined by “and”; a condition that tells them apart may be missing. Equal values may be shown once. Toxic doses and inconclusive results are not listed.

Tested on: L1210 leukemia ip in BDF1 mice, survival T/C
Assay: NCI In Vivo Anticancer Drug Screen. Data for tumor model L1210 Leukemia (intraperitoneal) in B6D2F1 (BDF1) mice
Conditions: higher = longer survival
In short: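 Survival endpoint. Drug-treated group vs vehicle group, expressed as T divided by C. Tumor passaged by transplantation.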

NC(=S)N/N=C/c1ccc(O)cn1
T/C (endpoint: mean survival time, dose: 3.13 mg/kg/injection, schedule: Q03HX024 (ip), vehicle: Klucel (hydroxypropylcellulose) (HPC)): 120 % of control
T/C (endpoint: mean survival time, dose: 3.13 mg/kg/injection, schedule: Q03HX024 (ip), vehicle: other): 120 % of control
T/C (endpoint: mean survival time, dose: 3.13 mg/kg/injection, schedule: Q03HX024 (ip), vehicle: saline): 113 % of control
T/C (endpoint: mean survival time, dose: 6.25 mg/kg/injection, schedule: Q03HX024 (ip), vehicle: other): 106 % of control
T/C (endpoint: mean survival time, dose: 9.5 mg/kg/injection, schedule: Q01DX005 (iv), vehicle: other): 104 % of control
T/C (endpoint: mean survival time, dose: 11.0 mg/kg/injection, schedule: Q03HX032 (ip), vehicle: saline with Tween-80): 123 % of control
T/C (endpoint: mean survival time, dose: 12.5 mg/kg/injection, schedule: Q03HX024 (ip), vehicle: other): 106 % of control
T/C (endpoint: mean survival time, dose: 12.5 mg/kg/injection, schedule: Q03HX024 (ip), vehicle: saline): 159 % of control
T/C (endpoint: mean survival time, dose: 19.0 mg/kg/injection, schedule: Q01DX005 (iv), vehicle: other): 111 % of control
T/C (endpoint: mean survival time, dose: 25.0 mg/kg/injection, schedule: Q01DX015 (ip), vehicle: carboxymethylcellulose (CMC)): 158 % of control
T/C (endpoint: mean survival time, dose: 33.0 mg/kg/injection, schedule: Q## X008 (ip), vehicle: other): 124 % of control
T/C (endpoint: mean survival time, dose: 33.0 mg/kg/injection, schedule: Q## X016 (ip), vehicle: other): 122 % of control
T/C (endpoint: mean survival time, dose: 37.5 mg/kg/injection, schedule: Q01DX005 (ip), vehicle: other): 159 % of control
T/C (endpoint: mean survival time, dose: 40.0 mg/kg/injection, schedule: Q06HX016 (ip), vehicle: Klucel (hydroxypropylcellulose) (HPC)): 154 % of control
T/C (endpoint: mean survival time, dose: 44.0 mg/kg/injection, schedule: Q03HX032 (ip), vehicle: saline with Tween-80): 159 % of control
T/C (endpoint: mean survival time, dose: 50.0 mg/kg/injection, schedule: Q01DX001 (ip), vehicle: saline): 114 % of control
T/C (endpoint: mean survival time, dose: 50.0 mg/kg/injection, schedule: Q01DX009 (oral), vehicle: carboxymethylcellulose (CMC)): 120 % of control
T/C (endpoint: mean survival time, dose: 50.0 mg/kg/injection, schedule: Q03HX024 (ip), vehicle: other): 151 % of control
T/C (endpoint: mean survival time, dose: 50.0 mg/kg/injection, schedule: Q03HX024 (ip), vehicle: saline): 151 % of control
T/C (endpoint: mean survival time, dose: 62.0 mg/kg/injection, schedule: Q03HX032 (ip), vehicle: carboxymethylcellulose (CMC)): 118 % of control
T/C (endpoint: mean survival time, dose: 66.0 mg/kg/injection, schedule: Q03HX032 (ip), vehicle: saline with Tween-80): 102 % of control and 116 % of control
T/C (endpoint: mean survival time, dose: 75.0 mg/kg/injection, schedule: Q03HX008 (ip), vehicle: alkali diluted with saline): 156 % of control
T/C (endpoint: mean survival time, dose: 93.0 mg/kg/injection, schedule: Q03HX032 (ip), vehicle: carboxymethylcellulose (CMC)): 96 % of control
T/C (endpoint: mean survival time, dose: 100.0 mg/kg/injection, schedule: Q01DX001 (ip), vehicle: saline): 120 % of control
T/C (endpoint: mean survival time, dose: 100.0 mg/kg/injection, schedule: Q01DX001 (oral), vehicle: other): 106 % of control
T/C (endpoint: mean survival time, dose: 100.0 mg/kg/injection, schedule: Q01DX009 (oral), vehicle: other): 121 % of control
T/C (endpoint: mean survival time, dose: 100.0 mg/kg/injection, schedule: Q03HX024 (ip), vehicle: saline): 104 % of control
T/C (endpoint: mean survival time, dose: 100.0 mg/kg/injection, schedule: Q04DX003 (ip), vehicle: alkali diluted with saline): 111 % of control
T/C (endpoint: mean survival time, dose: 100.0 mg/kg/injection, schedule: Q## X002 (oral), vehicle: other): 98 % of control
T/C (endpoint: mean survival time, dose: 100.0 mg/kg/injection, schedule: Q## X003 (oral), vehicle: other): 108 % of control
T/C (endpoint: mean survival time, dose: 100.0 mg/kg/injection, schedule: Q## X008 (oral), vehicle: other): 101 % of control
T/C (endpoint: mean survival time, dose: 100.0 mg/kg/injection, schedule: Q## X016 (oral), vehicle: other): 97 % of control
T/C (endpoint: mean survival time, dose: 100.0 mg/kg/injection, schedule: Q## X024 (oral), vehicle: other): 101 % of control
T/C (endpoint: mean survival time, dose: 150.0 mg/kg/injection, schedule: Q01DX001 (ip), vehicle: alkali diluted with saline): 104 % of control
T/C (endpoint: mean survival time, dose: 150.0 mg/kg/injection, schedule: Q01DX001 (ip), vehicle: other): 118 % of control
T/C (endpoint: mean survival time, dose: 150.0 mg/kg/injection, schedule: Q03HX024 (ip), vehicle: saline): 152 % of control
T/C (endpoint: mean survival time, dose: 150.0 mg/kg/injection, schedule: Q08DX002 (ip), vehicle: alkali diluted with saline): 102 % of control
T/C (endpoint: mean survival time, dose: 150.0 mg/kg/injection, schedule: Q## X002 (ip), vehicle: other): 114 % of control
T/C (endpoint: mean survival time, dose: 150.0 mg/kg/injection, schedule: Q## X016 (ip), vehicle: other): 153 % of control
T/C (endpoint: mean survival time, dose: 200.0 mg/kg/injection, schedule: Q01DX001 (oral), vehicle: other): 103 % of control
T/C (endpoint: mean survival time, dose: 200.0 mg/kg/injection, schedule: Q01DX009 (ip), vehicle: saline): 119 % of control
T/C (endpoint: mean survival time, dose: 200.0 mg/kg/injection, schedule: Q01DX009 (oral), vehicle: carboxymethylcellulose (CMC)): 157 % of control
T/C (endpoint: mean survival time, dose: 200.0 mg/kg/injection, schedule: Q04DX003 (ip), vehicle: alkali diluted with saline): 112 % of control
T/C (endpoint: mean survival time, dose: 200.0 mg/kg/injection, schedule: Q## X002 (oral), vehicle: other): 104 % of control
T/C (endpoint: mean survival time, dose: 200.0 mg/kg/injection, schedule: Q## X003 (oral), vehicle: other): 112 % of control
T/C (endpoint: mean survival time, dose: 200.0 mg/kg/injection, schedule: Q## X008 (oral), vehicle: other): 111 % of control
T/C (endpoint: mean survival time, dose: 200.0 mg/kg/injection, schedule: Q## X016 (oral), vehicle: other): 106 % of control
T/C (endpoint: mean survival time, dose: 200.0 mg/kg/injection, schedule: Q## X024 (oral), vehicle: other): 102 % of control
T/C (endpoint: mean survival time, dose: 280.0 mg/kg/injection, schedule: Q01DX001 (ip), vehicle: saline with Tween-80): 118 % of control and 119 % of control
T/C (endpoint: mean survival time, dose: 300.0 mg/kg/injection, schedule: Q01DX001 (ip), vehicle: alkali diluted with saline): 108 % of control
T/C (endpoint: mean survival time, dose: 300.0 mg/kg/injection, schedule: Q01DX009 (ip), vehicle: saline with Tween-80): 107 % of control
T/C (endpoint: mean survival time, dose: 300.0 mg/kg/injection, schedule: Q08DX002 (ip), vehicle: alkali diluted with saline): 105 % of control
T/C (endpoint: mean survival time, dose: 400.0 mg/kg/injection, schedule: Q01DX001 (ip), vehicle: saline): 109 % of control
T/C (endpoint: mean survival time, dose: 400.0 mg/kg/injection, schedule: Q01DX001 (oral), vehicle: other): 105 % of control
T/C (endpoint: mean survival time, dose: 400.0 mg/kg/injection, schedule: Q01DX009 (oral), vehicle: carboxymethylcellulose (CMC)): 153 % of control
T/C (endpoint: mean survival time, dose: 400.0 mg/kg/injection, schedule: Q01DX009 (oral), vehicle: other): 156 % of control
T/C (endpoint: mean survival time, dose: 400.0 mg/kg/injection, schedule: Q01DX015 (ip), vehicle: carboxymethylcellulose (CMC)): 103 % of control
T/C (endpoint: mean survival time, dose: 400.0 mg/kg/injection, schedule: Q03HX024 (ip), vehicle: clinical formulation): 98 % of control
T/C (endpoint: mean survival time, dose: 400.0 mg/kg/injection, schedule: Q## X002 (oral), vehicle: other): 105 % of control
T/C (endpoint: mean survival time, dose: 400.0 mg/kg/injection, schedule: Q## X003 (ip), vehicle: other): 150 % of control
T/C (endpoint: mean survival time, dose: 400.0 mg/kg/injection, schedule: Q## X003 (oral), vehicle: other): 116 % of control
T/C (endpoint: mean survival time, dose: 400.0 mg/kg/injection, schedule: Q## X008 (oral), vehicle: other): 110 % of control
T/C (endpoint: mean survival time, dose: 400.0 mg/kg/injection, schedule: Q## X016 (oral), vehicle: other): 120 % of control
T/C (endpoint: mean survival time, dose: 400.0 mg/kg/injection, schedule: Q## X024 (oral), vehicle: other): 122 % of control
T/C (endpoint: mean survival time, dose: 427.0 mg/kg/injection, schedule: Q01DX001 (ip), vehicle: saline with Tween-80): 121 % of control and 122 % of control
T/C (endpoint: mean survival time, dose: 600.0 mg/kg/injection, schedule: Q01DX001 (ip), vehicle: alkali diluted with saline): 108 % of control
T/C (endpoint: mean survival time, dose: 600.0 mg/kg/injection, schedule: Q01DX005 (ip), vehicle: other): 97 % of control
T/C (endpoint: mean survival time, dose: 600.0 mg/kg/injection, schedule: Q01DX009 (ip), vehicle: other): 108 % of control
T/C (endpoint: mean survival time, dose: 600.0 mg/kg/injection, schedule: Q08DX002 (ip), vehicle: alkali diluted with saline): 105 % of control
T/C (endpoint: mean survival time, dose: 800.0 mg/kg/injection, schedule: Q01DX001 (oral), vehicle: other): 106 % of control
T/C (endpoint: mean survival time, dose: 800.0 mg/kg/injection, schedule: Q## X002 (oral), vehicle: other): 115 % of control
T/C (endpoint: mean survival time, dose: 800.0 mg/kg/injection, schedule: Q## X003 (oral), vehicle: other): 107 % of control
T/C (endpoint: mean survival time, dose: 800.0 mg/kg/injection, schedule: Q## X008 (oral), vehicle: other): 123 % of control
T/C (endpoint: mean survival time, dose: 800.0 mg/kg/injection, schedule: Q## X024 (oral), vehicle: other): 155 % of control
T/C (endpoint: mean survival time, dose: 833.0 mg/kg/injection, schedule: Q01DX001 (ip), vehicle: saline): 153 % of control
T/C (endpoint: mean survival time, dose: 1200.0 mg/kg/injection, schedule: Q01DX001 (ip), vehicle: other): 158 % of control
T/C (endpoint: mean survival time, dose: 1388.0 mg/kg/injection, schedule: Q01DX001 (ip), vehicle: saline): 157 % of control
T/C (endpoint: mean survival time, dose: 1600.0 mg/kg/injection, schedule: Q## X024 (ip), vehicle: other): 104 % of control
T/C (endpoint: mean survival time, dose: 2400.0 mg/kg/injection, schedule: Q01DX001 (ip), vehicle: saline): 150 % of control and 152 % of control
T/C (endpoint: mean survival time, dose: 2400.0 mg/kg/injection, schedule: Q## X016 (ip), vehicle: other): 100 % of control
T/C (endpoint: median survival time, dose: 37.5 mg/kg/injection, schedule: Q01DX009 (ip), vehicle: water): 155 % of control and 157 % of control
T/C (endpoint: median survival time, dose: 50.0 mg/kg/injection, schedule: Q01DX009 (ip), vehicle: other): 150 % of control
T/C (endpoint: median survival time, dose: 100.0 mg/kg/injection, schedule: Q04DX003 (ip), vehicle: other): 105 % of control
T/C (endpoint: median survival time, dose: 100.0 mg/kg/injection, schedule: Q04DX003 (sc), vehicle: other): 100 % of control
T/C (endpoint: median survival time, dose: 150.0 mg/kg/injection, schedule: Q01DX009 (ip), vehicle: water): 122 % of control and 124 % of control
T/C (endpoint: median survival time, dose: 200.0 mg/kg/injection, schedule: Q04DX003 (ip), vehicle: other): 120 % of control
T/C (endpoint: median survival time, dose: 300.0 mg/kg/injection, schedule: Q01DX009 (ip), vehicle: water): 105 % of control and 106 % of control
T/C (endpoint: median survival time, dose: 400.0 mg/kg/injection, schedule: Q04DX003 (ip), vehicle: other): 100 % of control
T/C (endpoint: median survival time, dose: 400.0 mg/kg/injection, schedule: Q04DX003 (sc), vehicle: other): 120 % of control
T/C (endpoint: median survival time, dose: 500.0 mg/kg/injection, schedule: Q01DX001 (ip), vehicle: saline): 150 % of control
T/C (endpoint: median survival time, dose: 1388.0 mg/kg/injection, schedule: Q01DX001 (ip), vehicle: saline): 157 % of control
